Laboratory results as given in patent US20260295053A1, “COMPOUNDS FOR DEGRADATION AND INHIBITION OF KRAS (G12D) PROTEIN” (Shenzhen Ionova Life Science Co., Ltd., priority 2023, published 2026).

How the values were obtained:
KRAS (G12D) = biological target: T1, KRAS (G12D) (Homo sapiens, UniProt P01116, G12D); test: KRAS (G12D) cellular degradation assay in AsPC-1 cells; type: cell-based; settings: 24 hours, antibody fluorescence (Odyssey CLX), DC50 half-maximal degradation concentration
T1 construct: in-cell western with KRAS G12D antibody after 24 h
How it was run: (§1)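 AsPC-1 cells: for degradation, grown to ~90% confluency, treated 24 h with 1:3 compound series ([…] to 1.5 nM), then fixed and immunostained for KRAS G12D and β-actin, read by infrared fluorescence, DC50 fitted. Proliferation: 3,500 cells/well, 6-day treatment, CellTiter Glo luminescence, IC50 fitted.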

AsPC-1 cells = test: AsPC-1 cell proliferation assay (CellTiter Glo); type: cell-based; settings: 6 days
How it was run: as §1

T1 sequence (P01116 1-188 isoform P01116-2 G12D): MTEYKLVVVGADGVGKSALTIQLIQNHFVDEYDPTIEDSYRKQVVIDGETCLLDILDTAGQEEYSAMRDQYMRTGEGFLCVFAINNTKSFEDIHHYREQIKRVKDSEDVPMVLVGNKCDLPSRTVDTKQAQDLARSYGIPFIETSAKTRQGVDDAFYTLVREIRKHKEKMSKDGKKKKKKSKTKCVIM

SMILES	DC50 (KRAS (G12D)) [nM]	IC50 (AsPC-1 cells; Homo sapiens, ASPC1, 144 h) [nM]	IC50 (AsPC-1 cells) [nM]
CCn1nccc1-c1ccc([C@H](CO)NC(=O)[C@@H]2C[C@@H](O)CN2C(=O)[C@H](C(C)C)n2cc(-c3ccc(COc4c(-c5c(C)c(F)cc6[nH]ncc56)c(C5CC5)cc5c(N6CCNCC[C@H]6C)nc(OC[C@H](C)OC)nc45)cc3)nn2)cc1 [Example 154, (2S,4R)-1-((2S)-2-(4-(4-(((6-cyclopropyl-7-(6-fluoro-5-methyl-1H-indazol-4-yl)-2-((S)-2-methoxypropoxy)-4-((R)-7-methyl-1,4-diazepan-1-yl)quinazolin-8-yl)oxy)methyl)phenyl)-1H-1,2,3-triazol-1-yl)-3-methylbutanoyl)-N—((R)-1-(4-(1-ethyl-1H-pyrazol-5-yl)phenyl)-2-hydroxyethyl)-4-hydroxypyrrolidine-2-carboxamide]	< 10	< 10	
CCn1nccc1-c1ccc([C@@H](NC(=O)[C@@H]2C[C@@H](O)CN2C(=O)[C@H](C(C)C)n2cc(-c3ccc(COc4c(-c5c(C)c(F)cc6[nH]ncc56)c(C5CC5)cc5c(N6CCCNCC6)nc(O[C@H]6C[C@H](OC)C6)nc45)cc3)nn2)[C@H](C)O)cc1 [Example 156, (2S,4R)-1-((2S)-2-(4-(4-(((6-cyclopropyl-4-(1,4-diazepan-1-yl)-7-(6-fluoro-5-methyl-1H-indazol-4-yl)-2-((1r,3r)-3-methoxycyclobutoxy)quinazolin-8-yl)oxy)methyl)phenyl)-1H-1,2,3-triazol-1-yl)-3-methylbutanoyl)-N-((1R,2S)-1-(4-(1-ethyl-1H-pyrazol-5-yl)phenyl)-2-hydroxypropyl)-4-hydroxypyrrolidine-2-carboxamide]	< 10	< 10	
CO[C@@H](C)COc1nc(N2CCCNCC2)c2cc(C3CC3)c(-c3c(C)c(F)cc4[nH]ncc34)c(OCc3ccc(-c4cn([C@H](C(=O)N5C[C@H](O)C[C@H]5C(=O)N[C@H](c5ccc(-c6scnc6C)cc5)[C@H](C)O)C(C)C)nn4)cc3)c2n1 [Example 157, (2S,4R)-1-((2S)-2-(4-(4-(((6-cyclopropyl-4-(1,4-diazepan-1-yl)-7-(6-fluoro-5-methyl-1H-indazol-4-yl)-2-((S)-2-methoxypropoxy)quinazolin-8-yl)oxy)methyl)phenyl)-1H-1,2,3-triazol-1-yl)-3-methylbutanoyl)-4-hydroxy-N-((1R,2S)-2-hydroxy-1-(4-(4-methylthiazol-5-yl)phenyl)propyl)pyrrolidine-2-carboxamide]	< 10	< 10	
CCn1nccc1-c1ccc([C@H](CO)NC(=O)[C@@H]2C[C@@H](O)CN2C(=O)[C@H](C(C)C)n2cc(-c3ccc(COc4c(-c5c(C)c(F)cc6[nH]ncc56)c(C5CC5)cc5c(N6CCC=CCC6)nc(OC[C@H](C)OC)nc45)cc3)nn2)cc1 [Example 158, (2S,4R)-1-((2S)-2-(4-(4-(((6-cyclopropyl-7-(6-fluoro-5-methyl-1H-indazol-4-yl)-2-((S)-2-methoxypropoxy)-4-(2,3,6,7-tetrahydro-1H-azepin-1-yl)quinazolin-8-yl)oxy)methyl)phenyl)-1H-1,2,3-triazol-1-yl)-3-methylbutanoyl)-N—((R)-1-(4-(1-ethyl-1H-pyrazol-5-yl)phenyl)-2-hydroxyethyl)-4-hydroxypyrrolidine-2-carboxamide]	10 to 100	10 to 100	
CO[C@@H](C)COc1nc(N(C)[C@H]2CCNC2)c2cc(C3CCC3)c(-c3c(C)c(F)cc4[nH]ncc34)c(OCc3ccc(-c4cn([C@H](C(=O)N5C[C@H](O)C[C@H]5C(=O)N[C@H](c5ccc(-c6scnc6C)cc5)[C@H](C)O)C(C)C)nn4)cc3)c2n1 [Example 159, (2S,4R)-1-((2S)-2-(4-(4-(((6-cyclobutyl-7-(6-fluoro-5-methyl-1H-indazol-4-yl)-2-((S)-2-methoxypropoxy)-4-(methyl((S)-pyrrolidin-3-yl)amino)quinazolin-8-yl)oxy)methyl)phenyl)-1H-1,2,3-triazol-1-yl)-3-methylbutanoyl)-4-hydroxy-N-((1R,2S)-2-hydroxy-1-(4-(4-methylthiazol-5-yl)phenyl)propyl)pyrrolidine-2-carboxamide]	< 10		< 10
CCn1nccc1-c1ccc([C@H](CO)NC(=O)[C@@H]2C[C@@H](O)CN2C(=O)[C@H](C(C)C)n2cc(-c3ccc(COc4c(-c5c(C)c(F)cc6[nH]ncc56)c(C5CC5)cc5c(N6C[C@@H]7C[C@H]6CN7)nc(O[C@H]6C[C@H](OC)C6)nc45)cc3)nn2)c2c1CC2 [Example 160, (2S,4R)-1-((2S)-2-(4-(4-(((4-((1S,4S)-2,5-diazabicyclo[2.2.1]heptan-2-yl)-6-cyclopropyl-7-(6-fluoro-5-methyl-1H-indazol-4-yl)-2-((1r,3S)-3-methoxycyclobutoxy)quinazolin-8-yl)oxy)methyl)phenyl)-1H-1,2,3-triazol-1-yl)-3-methylbutanoyl)-N—((R)-1-(5-(1-ethyl-1H-pyrazol-5-yl)bicyclo[4.2.0]octa-1(6),2,4-trien-2-yl)-2-hydroxyethyl)-4-hydroxypyrrolidine-2-carboxamide]	< 10	< 10	
CCn1nccc1-c1ccc([C@H](CO)NC(=O)[C@@H]2C[C@@H](O)CN2C(=O)[C@H](C(C)C)n2cc(-c3ccc(COc4c(-c5c(C)c(F)cc6[nH]ncc56)c(C5CC5)cc5c(N6CCOCC(C)(O)C6)nc(OC[C@H](C)OC)nc45)cc3)nn2)cc1 (stereo partly drawn) [Example 161, (2S,4R)-1-((2S)-2-(4-(4-(((6-cyclopropyl-7-(6-fluoro-5-methyl-1H-indazol-4-yl)-4-(6-hydroxy-6-methyl-1,4-oxazepan-4-yl)-2-((S)-2-methoxypropoxy)quinazolin-8-yl)oxy)methyl)phenyl)-1H-1,2,3-triazol-1-yl)-3-methylbutanoyl)-N—((R)-1-(4-(1-ethyl-1H-pyrazol-5-yl)phenyl)-2-hydroxyethyl)-4-hydroxypyrrolidine-2-carboxamide]	10 to 100	< 10	
CCn1cc2c(C#C[C@H](CO)NC(=O)[C@@H]3C[C@@H](O)CN3C(=O)[C@H](C(C)C)n3cc(-c4ccc(COc5c(-c6c(C)c(F)cc7[nH]ncc67)c(C6CC6)cc6c(N7C[C@@H]8C[C@H]7CN8)nc(OC[C@H](C)OC)nc56)cc4)nn3)cccc2n1 [Example 162, (2S,4R)-1-((2S)-2-(4-(4-(((4-((1S,4S)-2,5-diazabicyclo[2.2.1]heptan-2-yl)-6-cyclopropyl-7-(6-fluoro-5-methyl-1H-indazol-4-yl)-2-((S)-2-methoxypropoxy)quinazolin-8-yl)oxy)methyl)phenyl)-1H-1,2,3-triazol-1-yl)-3-methylbutanoyl)-N—((R)-4-(2-ethyl-2H-indazol-4-yl)-1-hydroxybut-3-yn-2-yl)-4-hydroxypyrrolidine-2-carboxamide]	< 10	< 10	
CCn1nccc1-c1ccc([C@@H](NC(=O)[C@@H]2C[C@@H](O)CN2C(=O)[C@H](C(C)C)n2cc(-c3ccc(COc4c(-c5c(C)c(F)cc6[nH]ncc56)c(C5CC5)cc5c(N(C)[C@H]6CCNC6)nc(OC[C@H](C)OC)nc45)cc3)nn2)[C@H](C)O)c2c1CC2 [Example 164, (2S,4R)-1-((2S)-2-(4-(4-(((6-cyclopropyl-7-(6-fluoro-5-methyl-1H-indazol-4-yl)-2-((S)-2-methoxypropoxy)-4-(methyl((S)-pyrrolidin-3-yl)amino)quinazolin-8-yl)oxy)methyl)phenyl)-1H-1,2,3-triazol-1-yl)-3-methylbutanoyl)-N-((1R,2S)-1-(5-(1-ethyl-1H-pyrazol-5-yl)bicyclo[4.2.0]octa-1(6),2,4-trien-2-yl)-2-hydroxypropyl)-4-hydroxypyrrolidine-2-carboxamide]	< 10		< 10
CCn1nccc1-c1ccc([C@H](CO)NC(=O)[C@@H]2C[C@@H](O)CN2C(=O)[C@H](C(C)C)n2cc(-c3ccc(COc4c(-c5c(C)c(F)cc6[nH]ncc56)c(C5CC5)cc5c(N(C)[C@H]6CCNC6)nc(O[C@H]6C[C@H](OC)C6)nc45)cc3)nn2)cc1 [Example 165, (2S,4R)-1-((2S)-2-(4-(4-(((6-cyclopropyl-7-(6-fluoro-5-methyl-1H-indazol-4-yl)-2-((1r,3S)-3-methoxycyclobutoxy)-4-(methyl((S)-pyrrolidin-3-yl)amino)quinazolin-8-yl)oxy)methyl)phenyl)-1H-1,2,3-triazol-1-yl)-3-methylbutanoyl)-N—((R)-1-(4-(1-ethyl-1H-pyrazol-5-yl)phenyl)-2-hydroxyethyl)-4-hydroxypyrrolidine-2-carboxamide]	< 10	< 10	
CO[C@H]1C[C@H](Oc2nc(N(C)[C@H]3CCNC3)c3cc(C4CC4)c(-c4c(C)c(F)cc5[nH]ncc45)c(OCc4ccc(-c5cn([C@H](C(=O)N6C[C@H](O)C[C@H]6C(=O)N[C@@H](CO)c6ccc(-c7scnc7C)cc6)C(C)C)nn5)cc4)c3n2)C1 [Example 166, (2S,4R)-1-((2S)-2-(4-(4-(((6-cyclopropyl-7-(6-fluoro-5-methyl-1H-indazol-4-yl)-2-((1r,3S)-3-methoxycyclobutoxy)-4-(methyl((S)-pyrrolidin-3-yl)amino)quinazolin-8-yl)oxy)methyl)phenyl)-1H-1,2,3-triazol-1-yl)-3-methylbutanoyl)-4-hydroxy-N—((R)-2-hydroxy-1-(4-(4-methylthiazol-5-yl)phenyl)ethyl)pyrrolidine-2-carboxamide]	< 10	< 10	
CO[C@@H](C)COc1nc(N(C)[C@H]2CCNC2)c2cc(C3CC3)c(-c3c(C)c(F)cc4[nH]ncc34)c(OCc3ccc(-c4cn([C@H](C(=O)N5C[C@H](O)C[C@H]5C(=O)N[C@H](c5ccc(-c6scnc6C)cc5)[C@H](C)O)C(C)C)nn4)cc3)c2n1 [Example 167, (2S,4R)-1-((2S)-2-(4-(4-(((6-cyclopropyl-7-(6-fluoro-5-methyl-1H-indazol-4-yl)-2-((S)-2-methoxypropoxy)-4-(methyl((S)-pyrrolidin-3-yl)amino)quinazolin-8-yl)oxy)methyl)phenyl)-1H-1,2,3-triazol-1-yl)-3-methylbutanoyl)-4-hydroxy-N-((1R,2S)-2-hydroxy-1-(4-(4-methylthiazol-5-yl)phenyl)propyl)pyrrolidine-2-carboxamide]	< 10		< 10
